Assay results: patent US20250049741A1, “COMPOSITION FOR PREVENTING OR TREATING ALZHEIMER'S DISEASE COMPRISING PHOSPHOLIPASE C ACTIVATOR AS AN ACTIVE INGREDIENT” (Korea University Research and Business Foundation, priority 2021, published 2025)

Tests used:
Type in all cases: cell-based, Sprague-Dawley rats
[1] = tested on: hippocampal CA3-CA1 excitatory synapses; experiment: S-eCB mobilization induced spike timing-dependent potentiation (tLTP) protocol, EPSP slope
Method: (§1) Soluble AβO was prepared according to a previous study (BMC Biol. 2020; 18(1):7). Specifically, Aβ1-42 (Aβ) and a scrambled form of Aβ as a control peptide were purchased in powder form. Aβ and scrambled Aβ were dissolved for monomerization in 1,1,1,3,3,3-hexafluoro-2-propanol (HFIP, Sigma Aldrich, USA) at a final concentration of 1 mM, and the solution was incubated for 90 minutes. After the HFIP was evaporated, the remaining thin and clear film of Aβ or scrambled Aβ was dissolved in dimethyl sulfoxide (DMSO, Sigma Aldrich, USA) to prepare 5 mM Aβ or scrambled Aβ stocks, which were aliquoted and frozen at −20° C. Aβ or scrambled Aβ stocks were thawed and diluted to 100 μM in artificial cerebrospinal fluid (ACSF). Thereafter, Aβ or scrambled Aβ stocks were incubated for oligomerization for 18 hours. The final AβO or scrambled AβO stock solution was diluted to a final concentration of 200 nM in 31.2 ml of ACSF, and rat hippocampal slices were treated with the stock solution for 20 minutes in a recovery chamber before measurement of brain signals. In control experiments for normal brain conditions using a vehicle, rat hippocampal slices were treated with 0.004% DMSO in ACSF.
(§2) The brains of SD rats were isolated following decapitation under isoflurane-induced anesthesia and transferred into ice-cold ACSF containing 126 mM NaCl, […], 1.25 mM NaH2PO4, 2 mM MgSO4, 2 mM CaCl2), 25 mM NaHCO3, and 10 mM glucose (pH 7.2 to 7.4). The ACSF was continuously oxygenated with 95% O2/5% CO2. Horizontal hippocampal slices (350 μm thickness) were obtained using a vibratome (VT1000S, Leica Biosystems, Germany) and immediately incubated at room temperature in a submerged chamber perfused with oxygenated ACSF for at least 1 hour.

[2] = tested on: CA1 PCs in rat hippocampal slices; experiment: Ex vivo eCB / S-eCB mobilization protocol: eIPSC amplitudes by whole-cell voltage-clamp
Excerpt: To test the acute effect of AβO on hippocampal S-eCB mobilization, hippocampal slices from Sprague-Dawley rats (SD, 2 to 3 weeks old, DaeHan Biolink, Co., Ltd., Korea) were used. Male and female rats were used in all in vitro experiments. To test the chronic effect of AβO on hippocampus-dependent memory impairments caused by amyloidosis, the 5XFAD mouse model (6 to 7 months old, #34840-JAX, Jackson Laboratory, USA), which is a mouse model of Alzheimer's disease that mimics AβO depositions, was used. C57BL/6 mice (6 to 7 months old, KOATECH, Korea) were used as wild type (WT) control mice for 5XFAD mice. Male 5XFAD and C57BL/6 mice were used for all in vivo behavioral experiments. The 5XFAD mouse genotypes were identified by polymerase chain reaction (PCR) using DNA extracted from the tails of the mice. All animal-related procedures followed the guidelines of the Institutional Animal Care and Use Committee of Korea University (guidelines for SD rats: KUIACUC-2017-103, guidelines for C57BL/6 and 5XFAD mice: KUIACUC-2019-0068).
as §1, §2
To quantify eCB mobilization, the changes in eCB mobilization-induced Schaffer collateral (SC) nerve bundle stimulation-evoked inhibitory postsynaptic current (eIPSC) amplitudes were measured in CA1 PCs through the whole-cell voltage-clamp technique. The whole-cell voltage-clamp technique in CA1 PCs was performed using a MultiClamp 700B amplifier (Molecular Devices, USA) under an infrared differential interference contrast video microscope (BW51W, Olympus, Japan), using a borosilicate electrode (tip resistance: 4 to 8 MΩ) that was filled with an intracellular solution containing 145 mM CsCl, 10 mM HEPES, 2 mM EGTA, 4 mM QX-314, 4 mM Mg-ATP, 0.4 mM […], pH 7.2 to 7.3, and 270 to 280 mOsm/L. To record eIPSCs in the CA1 PCs, a stimulating electrode (A-M Systems, USA) was placed in a stratum radiatum to stimulate the SC pathway that carries CA3 PC axons. Electrical stimulation pulses of 200 to 400 μA amplitudes (20 to 40 μs) were generated using a constant current stimulator (model DS3, Digitimer Ltd., UK). eIPSCs were recorded in CA PCs every 1 second while maintaining the membrane potential at −70 mV.

PLCβ1 = experiment: Western blot of PLCβ1 in rat hippocampal slices; conditions: AβO-treated rat hippocampal slices
Method: as §1, with “The final AβO or scrambled AβO stock solution was diluted to a final concentration of 200 nM in 31.2 ml of ACSF, and rat hippocampal slices were treated with the stock solution for 20 minutes in a recovery chamber before measurement of brain signals. In control experiments for normal brain conditions using a vehicle, rat hippocampal slices were treated with 0.004% DMSO in ACSF.” left out
Hippocampal PLCβ1 of SD rats and C57BL/6 or 5XFAD mice were prepared from homogenized hippocampi dissolved in 200 μL of RIPA buffer (Bio-Rad, USA), and were resolved on non-reducing 10% tris-glycine-sodium dodecyl sulfate-polyacrylamide gel electrophoresis (SDS-PAGE) gels (Bio-Rad, USA) using 4×Laemmli sample buffers (Bio-Rad, USA). […] Immunoreactivity was confirmed with enhanced chemiluminescence (Bio-Rad, USA) using a Fluorchem E system (ProteinSimple, USA) and analyzed with ImageJ software. […]

[3] = DMSO-treated rat hippocampal slices, D-AP5 50 μM or AM251 3 μM

## N[C@H](CCCP(=O)(O)O)C(=O)O [D-AP5, D-2-amino-5-phosphonovaleric acid]
[1]; [3]
  mGluR5-mediated LTD in the presence of antagonist: induced in both the test and control pathways
  tLTP induction (EPSP slope, test pathway), effect of antagonist: completely blocked

## Cc1cc(C(=O)O)ccc1[C@H](N)C(=O)O [LY367385]
[2]; LY367385 100 μM, DMSO-treated rat hippocampal slices
  eIPSC amplitudes following 60-s-long DHPG puff during 1 Hz neural spikes in the presence of mGluR1 antagonist: decreased

## N[C@H](C(=O)O)c1cc(O)cc(O)c1 [DHPG, (S)-3,5-dihydroxyphenylglycine]
[2]; DHPG (50 μM) puff alone, rat hippocampal slices, mean±SEM
  first ten eIPSC amplitudes as % of the mean eIPSC amplitude measured at the baseline before the DHPG puff: 79±7%
[2]; DHPG puff paired with 60-s-long postsynaptic neural spike trains at 1 Hz, DMSO-treated rat hippocampal slices, mean±SEM
  eIPSC amplitude as % of the baseline eIPSC amplitude (S-eCB mobilization): 62±4%

## Cc1cccc(C#Cc2ccccc2)n1 [MPEP, 2-methyl-6-(phenylethynyl) pyridine]
[2]; MPEP 10 μM, DMSO-treated, AβO-treated or scrambled AβO-treated rat hippocampal slices
  eIPSC amplitudes following DHPG puff during 1 Hz neural spikes in the presence of mGluR5 antagonist: did not significantly change

## Cc1c(C(=O)NN2CCCCC2)nn(-c2ccc(Cl)cc2Cl)c1-c1ccc(I)cc1 [AM251]
[2]; AM251 3 μM, DHPG puff alone
  effect on the DHPG-induced decrease of eIPSC amplitude (eCB mobilization): blocked the decrease in amplitude

## AβO: soluble amyloid beta oligomer prepared from Aβ1-42 peptide powder (Bachem)
[2]; slices treated with 200 nM peptide for 20 minutes, in the presence of LY367385 100 μM
  eIPSC amplitudes / suppression of eIPSC amplitudes following DHPG puff during 1 Hz neural spikes in peptide-treated slices: completely blocked
[1]; AβO-treated compared to DMSO-treated rat hippocampal slices
  mGluR-LTD in the control pathway: not affected
[1]; AβO-treated rat hippocampal slices
  induction of tLTP in the test pathway: completely blocked
PLCβ1
  protein expression levels of PLCβ1 compared to DMSO-treated slices: remarkably decreased

## COc1ccc2c(c1)CC[C@@H]1[C@@H]2CC[C@]2(C)[C@@H](NCCCCCCN3C(=O)C=CC3=O)CC[C@@H]12 [U73122]
[2]; U73122 5 μM, DMSO-treated rat hippocampal slices, similar in AβO- and scrambled AβO-treated slices
  synergistic enhancement in the suppression of eIPSC amplitudes (S-eCB mobilization), effect of PLCβ blocker: completely blocked
